From the CheMixHub ionic liquid set

Assay: xn = mol fraction of the nth substance listed

CS(C)=O + CC(=O)[O-].CC[NH2+]CC
Details | viscosity [mPa·s]
298.15 K, 101 kPa, x2 = 0 | 2.01

CS(C)=O + CC(=O)[O-].CC[NH+](CC)CC
101 kPa, x1 = 1
Details | viscosity [mPa·s]
298.15 K | 1.99
303.15 K | 1.79
308.15 K | 1.65

CC[n+]1ccn(C)c1C.F[B-](F)(F)F + CC(C)=O
viscosity [mPa·s], 101.3 kPa
Details | x1 = 0.02954 | x1 = 0.06403 | x1 = 0.1051 | x1 = 0.1544 | x1 = 0.215 | x1 = 0.2913 | x1 = 0.3887 | x1 = 0.5201
293.15 K | 0.42 | 0.615 | 0.797 | 1.19 | 1.82 | 3.37 | 7.01 | 15.8
298.15 K | 0.402 | 0.59 | 0.767 | 1.119 | 1.7 | 3.09 | 6.27 | 13.2
303.15 K | 0.384 | 0.563 | 0.726 | 1.048 | 1.59 | 2.81 | 5.66 | 11.59
308.15 K | 0.368 | 0.54 | 0.687 | 0.986 | 1.48 | 2.57 | 5.13 | 10.2
313.15 K | 0.354 | 0.516 | 0.652 | 0.929 | 1.38 | 2.36 | 4.67 | 9.03
318.15 K | 0.34 | 0.496 | 0.62 | 0.874 | 1.29 | 2.16 | 4.26 | 8.14
323.15 K | 0.327 | 0.478 | 0.588 | 0.825 | 1.22 | 1.96 | 3.91 | 7.34

CCCC[N+](CCCC)(CCCC)CCCC.[Cl-] + CC(C)C[C@H](N)C(=O)O
100 kPa
Details | electrical conductivity, 313.15 K [S/m] | electrical conductivity, 323.15 K [S/m] | electrical conductivity, 333.15 K [S/m] | electrical conductivity, 343.15 K [S/m] | electrical conductivity, 353.15 K [S/m] | viscosity, 313.15 K [mPa·s] | viscosity, 323.15 K [mPa·s] | viscosity, 333.15 K [mPa·s] | viscosity, 343.15 K [mPa·s] | viscosity, 353.15 K [mPa·s]
x1 = 0.8889 | 0.0188 | 0.0377 | 0.0631 | 0.0885 | 0.12 | 1070 | 444 | 219 | 123 | 76
x1 = 0.9 | 0.0149 | 0.027 | 0.0441 | 0.068 | 0.0891 | 940 | 517 | 259 | 146 | 88.1
x1 = 0.9091 | 0.0194 | 0.0302 | 0.054 | 0.0761 | 0.0971 | 890 | 410 | 197 | 114 | 99

CCCCCCCCCCCC[N+](C)(C)Cc1ccccc1.[Cl-] + CC(C)C[C@H](N)C(=O)O + O
electrical conductivity [S/m], 101 kPa
Details | 293.15 K | 298.15 K | 303.15 K | 308.15 K | 313.15 K
x2 = 0.001798, x1 = 0.0001441 | 0.0541 | 0.0606 | 0.0671 | 0.074 | 0.0811
x2 = 0.001798, x1 = 0.0001691 | 0.061 | 0.068 | 0.0755 | 0.0833 | 0.0918
x2 = 0.001798, x1 = 0.0001949 | 0.0661 | 0.0738 | 0.0821 | 0.0911 | 0.101
x2 = 0.001798, x1 = 0.0002208 | 0.0704 | 0.0788 | 0.0879 | 0.0977 | 0.108
x2 = 0.001798, x1 = 0.0002443 | 0.0741 | 0.0832 | 0.0928 | 0.103 | 0.116
x2 = 0.001798, x1 = 0.0002664 | 0.0776 | 0.0872 | 0.0975 | 0.109 | 0.122
x2 = 0.001798, x1 = 0.0002864 | 0.0807 | 0.0908 | 0.102 | 0.114 | 0.127
x2 = 0.001798, x1 = 0.0003052 | 0.0838 | 0.0941 | 0.106 | 0.118 | 0.132
x2 = 0.001798, x1 = 0.0003239 | 0.0872 | 0.0976 | 0.11 | 0.123 | 0.137
x2 = 0.001799, x1 = 5.649e-05 | 0.0231 | 0.0258 | 0.0287 | 0.0317 | 0.0346
x2 = 0.001799, x1 = 7.89e-05 | 0.0314 | 0.035 | 0.0389 | 0.0428 | 0.0469
x2 = 0.001799, x1 = 9.986e-05 | 0.0387 | 0.0435 | 0.0482 | 0.0532 | 0.0582
x2 = 0.001799, x1 = 0.0001206 | 0.0462 | 0.0518 | 0.0574 | 0.0633 | 0.0693
x2 = 0.008927, x1 = 0.0002331 | 0.0722 | 0.0806 | 0.0896 | 0.0994 | 0.11
x2 = 0.008927, x1 = 0.0002565 | 0.0758 | 0.0847 | 0.0944 | 0.105 | 0.117
x2 = 0.008927, x1 = 0.0002782 | 0.079 | 0.0883 | 0.0986 | 0.11 | 0.122
x2 = 0.008927, x1 = 0.0002981 | 0.0818 | 0.0918 | 0.102 | 0.115 | 0.127
x2 = 0.008927, x1 = 0.0003168 | 0.0845 | 0.0949 | 0.106 | 0.119 | 0.132
x2 = 0.008927, x1 = 0.0003371 | 0.0874 | 0.0983 | 0.11 | 0.123 | 0.137
x2 = 0.008928, x1 = 0.0001252 | 0.0463 | 0.0518 | 0.0574 | 0.0633 | 0.0692
x2 = 0.008928, x1 = 0.0001513 | 0.0552 | 0.0616 | 0.0682 | 0.075 | 0.082
x2 = 0.008928, x1 = 0.000179 | 0.0627 | 0.0698 | 0.0773 | 0.0853 | 0.0937
x2 = 0.008928, x1 = 0.000207 | 0.068 | 0.0757 | 0.084 | 0.093 | 0.103
x2 = 0.008929, x1 = 5.804e-05 | 0.0225 | 0.0252 | 0.028 | 0.031 | 0.0339
x2 = 0.008929, x1 = 7.973e-05 | 0.0302 | 0.0339 | 0.0376 | 0.0414 | 0.0454
x2 = 0.008929, x1 = 0.0001014 | 0.038 | 0.0425 | 0.0472 | 0.0519 | 0.0568
